Values quoted from earlier work as cited in patent US20120316171A1, “Tryptophan Hydroxylase Inhibitors for the Treatment of Cancer” (priority 2009, published 2012).

Assays:
[1] = test system: carcinoid patients
[2] = test system: cholangiocarcinoma tumors; settings: xenograft model of cholangiocarcinoma tumors; Alpini et al. 2008
[3] = in vivo

blood-brain barrier passage [3]: crosses the blood-brain barrier
SMILES: N[C@@H](Cc1ccc(Cl)cc1)C(=O)O (racemic) [pCPA, para-chlorophenylalanine]
adverse effects of administration [1]: unwanted psychological effects | effect on symptoms of carcinoid syndrome (flushing, diarrhea, valvular damage) ([1]; reported in the 1960's): alleviated some of those symptoms | tumor growth [2]: suppressed tumor growth
